Key:
[1] = target: Immunoglobulin lambda variable 6-57 (Homo sapiens, UniProt P01721, F49Y/T46L); assay: Stabilization of AL patient derived fluorescein-labeled IGLV6-57 T46L/F49Y mutant measured after 24 hrs by proteolysis coupled-fluorescence polarization assay
[2] = target: Immunoglobulin lambda variable 6-57 (Homo sapiens, UniProt P01721); assay: Stabilization of AL patient derived full length fluorescein-labeled IGLV6-57 expressed in Escherichia coli BL21 (DE3) measured after 24 hrs by proteolysis coupled-fluorescence polarization assay
Chain of Immunoglobulin lambda variable 6-57 (Homo sapiens, UniProt P01721) (P01721 whole entry): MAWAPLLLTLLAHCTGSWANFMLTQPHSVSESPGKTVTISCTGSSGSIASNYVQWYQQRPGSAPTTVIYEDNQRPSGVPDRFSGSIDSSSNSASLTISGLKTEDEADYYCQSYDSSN

[3] = Protein binding in human plasma at 2 uM after 4 hrs by UPLC-MS/MS analysis; assay type: ADME, cell-free
[4] = Solubility of the compound; assay type: physicochemical

Chain of Immunoglobulin lambda variable 6-57 (Homo sapiens, UniProt P01721, F49Y/T46L) (P01721 whole entry, looked up, stated change not applied): as the sequence (P01721 whole entry) above

solubility [4]	SMILES	EC50 [1] [nM]	EC50 [2] [nM]	PPB [3] [%]
–	CCN(CC)c1ccc2c(C)c(CCN3C(=O)NC4(CCN(S(=O)(=O)c5ccccc5)C4)C3=O)c(=O)oc2c1 (stereo not given)	648	207	–
–	Cc1cc(=O)oc2cc(OC(C)Cc3ccccc3)ccc12 (stereo not given)	1380	2970	–
–	CCN(CC)c1ccc2c(C)c(CCN3C(=O)NC4(CCN(C(=O)c5ccc[nH]c5=O)C4)C3=O)c(=O)oc2c1 (stereo not given)	3960	–	–
–	CCN(CC)c1ccc2c(C)c(CCN3CC4(CCN(c5nccn6ccnc56)CC4)NC3=O)c(=O)oc2c1	4.9	35.6	> 99.5
–	CCN(CC)c1ccc2c(C)c(CCOC(=O)NCc3cccc(-c4ccc[nH]c4=O)c3)c(=O)oc2c1	26.2	151	–
–	CCN(CC)c1ccc2c(C)c(CCN3C(=O)NC4(CCN(c5ncccn5)CC4)C3=O)c(=O)oc2c1	165	292	–
–	CCCN(CC)c1ccc2c(C)cc(=O)oc2c1	–	7890	–
–	CCN(CC)c1ccc2c(C)c(CCN3C(=O)NC4(CCN(c5nccn6ncnc56)CC4)C3=O)c(=O)oc2c1	55.2	71.1	–
–	CCN(CC)c1ccc2c(C)c(CCOC(=O)NCCc3cccnc3)c(=O)oc2c1	3680	1110	–
–	CCN(C)c1ccc2c(C)cc(=O)oc2c1	–	18000	–
–	CCN(CC)c1ccc2c(C)c(CCOC(=O)NCc3ccccc3)c(=O)oc2c1	317	302	–
–	CCN(CC)c1ccc2c(C)c(CCN3C(=O)NC4(CCN(c5ncnc6[nH]cnc56)CC4)C3=O)c(=O)oc2c1	46	110	–
–	CCN(CC)c1ccc2c(C)c(CCOC(=O)NCc3cccc(C(N)=O)c3)c(=O)oc2c1	228	150	–
–	CCN(CC)c1ccc2c(C)c(CCN3C(=O)NC4(CCN(c5ncnc6[nH]cnc56)C4)C3=O)c(=O)oc2c1 (stereo not given)	355	551	–
–	CCN(CC)c1ccc2c(C)c(CCN3CC4(CCN(c5ncccn5)CC4)NC3=O)c(=O)oc2c1	13.5	48.1	–
–	CCN(CC)c1ccc2c(C)c(CCOC(=O)NCC3CCCNC3)c(=O)oc2c1 (stereo not given)	8800	1690	–
–	CCN(CC)c1ccc2c(C)c(CCN3C(=O)NC4(CCN(c5ncccn5)C4)C3=O)c(=O)oc2c1 (stereo not given)	688	1370	–

solubility [4]	SMILES	EC50 [1] [nM]	EC50 [2] [nM]	PPB [3] [%]
–	CCN(CC)c1ccc2c(C)c(CCN3C(=O)NC4(CCN(c5ncnc6[nH]ncc56)CC4)C3=O)c(=O)oc2c1	124	103	–
–	CCN(CC)c1ccc2c(C)c(CCN3C(=O)NC4(CCN(c5nccn6ccnc56)CC4)C3=O)c(=O)oc2c1	29.8	62.4	–
–	CCN(CC)c1ccc2c(C)c(CCN3CC4(CCN(c5ncnc6[nH]ncc56)CC4)NC3=O)c(=O)oc2c1	4.7	8.8	–
–	CCN(CC)c1ccc2c(C)c(CCN3C(=O)NC4(CCN(S(=O)(=O)c5cccnc5)C4)C3=O)c(=O)oc2c1 (stereo not given)	4370	313	–
–	CCN(CC)c1ccc2c(C)c(CCN3C(=O)NC4(CCN(C(=O)c5c[nH]cn5)C4)C3=O)c(=O)oc2c1 (stereo not given)	729	855	–
–	CCN(CC)c1ccc2c(C)c(CCOC(=O)NCc3cccc(NC(C)=O)c3)c(=O)oc2c1	194	289	–
–	CCN(CC)c1ccc2c(C)c(CCOC(=O)N(C)CCc3cccnc3)c(=O)oc2c1	> 20000	5280	–
–	Cc1cc(=O)oc2cc(OCC(C)c3ccccc3)ccc12 (stereo not given)	444	558	–
–	CCN(CC)c1ccc2c(C)c(CCOC(=O)NCc3cncc(NC(C)=O)c3)c(=O)oc2c1	1170	816	–
–	CCN(CC)c1ccc2c(C)c(CCN3C(=O)NC4(CCN(C(=O)c5ccc[nH]c5=O)CC4)C3=O)c(=O)oc2c1	2700	3970	–
–	C#CCN(CC#C)c1ccc2c(C)cc(=O)oc2c1	–	2000	–
–	C#CCN(CC)c1ccc2c(C)cc(=O)oc2c1	–	2650	–
–	CCN(c1ccc2c(C)cc(=O)oc2c1)C(C)C	–	9700	–
Nd(Insoluble)	Cc1ccccc1C(C)Oc1ccc2c(C)cc(=O)oc2c1 (racemic)	–	–	–
–	Cc1c(CCN2CC3(CCN(c4nccn5ccnc45)CC3)NC2=O)c(=O)oc2cc(OCC(C)c3ccccc3)ccc12 (stereo in doubt; 84a)	8.3	8.6	–
–	Cc1c(CCN2CC3(CCN(c4nccn5ccnc45)CC3)NC2=O)c(=O)oc2cc(OCC(C)c3ccccc3)ccc12 (stereo in doubt; 84b)	3.9	11.5	–

Source: ChEMBL document CHEMBL4834435, “Discovery of Potent Coumarin-Based Kinetic Stabilizers of Amyloidogenic Immunoglobulin Light Chains Using Structure-Based Design” (J Med Chem, 2021)
